Entries after “also recorded” stand apart in the source; their conditions may differ.
Assays:
[1] = system: normal (wild type) H-ras RNA, ras-luciferase fusion reporter in HeLa cells; assay: ras-luciferase reporter gene assay, normal form; details: read-out: IC50, inhibition of ras-luciferase activity; normal (unmutated) ras-luciferase, dose-response
[2] = system: full length H-ras mRNA (activated, codon 12); assay: ras transactivation reporter gene system; details: Table 5, antisense activity against H-ras; listed as Deoxy
[3] = system: 25-mer oligoribonucleotide complement (H-ras codon 12 RNA target); assay: Melting curves, hybridization to 25-mer RNA target; assay type: binding, human
Method: Absorbance vs temperature curves were measured at 260 nm using a Gilford 260 spectrophotometer interfaced to an IBM PC computer and a Gilford Response II spectrophotometer. The buffer contained 100 mM Na^+, 10 mM phosphate and 0.1 mM EDTA, pH 7. Oligonucleotide concentration was 4 μM each strand determined from the absorbance at 85° C. and extinction coefficients calculated according to Puglisi and Tinoco, Methods in Enzymol. 1989, 180, 304-325. Tm values, free energies of duplex formation and association constants were obtained from fits of data to a two state model with linear sloping baselines. Petersheim, M. and Turner, D.H., Biochemistry 1983, 22, 256-263. Reported parameters are averages of at least three experiments. For some oligonucleotides, free energies of duplex formation were also obtained from plots of Tm^-1 vs log10 (concentration). Borer, P.N., Dengler, B., Tinoco, I., Jr., and Uhlenbeck, O.C., J. Mol. Biol., 1974, 86, 843-853.

[4] = system: ras mRNA in T24 cells (activated codon 12); assay: Northern blot analysis of ras expression in T24 cells; assay type: cell-based, human; set-up: inhibition of ras mRNA: concentration or dose not given beside the values
Method: The human urinary bladder cancer cell line T24 was obtained from the American Type Culture Collection (Rockville Md.). Cells were grown in McCoy's 5 A medium with L-glutamine (Gibco BRL, Gaithersburg Md.), supplemented with 10% heat-inactivated fetal calf serum and 50 U/ml each of penicillin and streptomycin. Cells were seeded on 100 Mm plates. When they reached 70% confluency, they were treated with oligonucleotide. Plates were washed with 10 ml prewarmed PBS and 5 ml of Opti-MEM reduced-serum medium containing 2.5 μl DOTMA. Oligonucleotide was then added to the desired concentration. After 4 hours of treatment, the medium was replaced with McCoy's medium. Cells were harvested 48 hours after oligonucleotide treatment and RNA was isolated using a standard CsCl purification method.
(§1) Northern hybridization: 10 μg of each RNA was electrophoresed on a 1.2% agarose/formaldehyde gel and transferred overnight to GeneBind 45 nylon membrane (Pharmacia LKB, Piscataway, N.J.) using standard methods. […] RNA was UV-crosslinked to the membrane. Double-stranded ^32 P-labeled probes were synthesized using the Prime a Gene labeling kit (Promega, Madison Wis.). The ras probe was a SalI-NheI fragment of a cDNA clone of the activated (mutant) H-ras mRNA having a GGC-to-GTC mutation at codon-12. The control probe was G3PDH. Blots were prehybridized for 15 Minutes at 68° C. with the QuickHyb hybridization solution (Stratagene, La Jolla, Calif.). The heat-denatured radioactive probe (2.5×10^6 counts/2 ml hybridization solution) mixed with 100 μl of 10 Mg/ml salmon sperm DNA was added and the membrane was hybridized for 1 hour at 68° C. The blots were washed twice for 15 minutes at room temperature in 2× SSC/0.1% SDS and once for 30 minutes at 60° C. with 0.1XSSC/0.1%SDS. Blots were autoradiographed and the intensity of signal was quantitated using an ImageQuant PhosphorImager (Molecular Dynamics, Sunnyvale, Calif.). Northern blots were first hybridized with the ras probe, then stripped by boiling for 15 Minutes in 0.1× SSC/0.1%SDS and rehybridized with the control G3PDH probe to check for correct sample loading.

[5] = system: 47-mer H-ras RNA hairpin target; assay: Gel shift assay
Method: The structured ras target transcript, a 47-nucleotide hairpin containing the mutated codon 12, was prepared and mapped as described in Lima et al., Biochemistry 1991, 31, 12055-12061. Hybridization reactions were prepared in 20 μl containing 100 mM sodium, 10 mM phosphate, 0.1 mM EDTA, 100 CPM of T7-generated RNA (approximately 10 pM), and antisense oligonucleotide ranging in concentration from 1 pM to 10 μM. Reactions were incubated 24 hours at 37° C. Following hybridization, loading buffer was added to the reactions and reaction products were resolved on 20% native polyacrylamide gels, prepared using 45 mM tris-borate and 1 mM MgCl2 (TBM). Electrophoresis was carried out at 10° C. and gels were quantitated using a Molecular Dynamics Phosphorimager.

[6] = HeLa cell extract, 37° C.
Method: Oligonucleotides were incubated in crude HeLa cellular extracts at 37° C. to determine their sensitivity to nuclease degradation as described in Dignam et al., Nucleic Acids Res. 1983, 11, 1475-1489.

T24 cancer cells = assay: Inhibition of proliferation of cancer cells; assay type: cell-based, human
Method: Cells were seeded on 60 mm plates and were treated with oligonucleotide in the presence of DOTMA when they reached 70% confluency. Time course experiment: On day 1, cells were treated with a single dose of oligonucleotide at a final concentration of 100nM. The growth medium was changed once on day 3 and cells were counted every day for 5 days, using a counting chamber.

[7] = system: ras mRNA in HeLa cells (wild-type H-ras codon 12); assay: Northern blot analysis of ras expression in HeLa cells; assay type: cell-based, human
Method: HeLa cells were maintained as monolayers on 6-well plates in Dulbecco's Modified Eagle's medium (DMEM) supplemented with 10% fetal bovine serum and 100 U/ml penicillin. Treatment with oligonucleotide and isolation of RNA were essentially as described above for T24 cells.
as §1, with “Northern blots were first hybridized with the ras probe, then stripped by boiling for 15 Minutes in 0.1× SSC/0.1%SDS and rehybridized with the control G3PDH probe to check for correct sample loading.” left out

[8] = system: mutant (activated, codon 12) H-ras RNA, ras-luciferase fusion reporter in HeLa cells; assay: ras-luciferase reporter gene assay, mutant form
[9] = system: 25-base oligoribonucleotide of activated H-ras mRNA, mammalian RNase H; assay: RNase H cleavage in vitro with HeLa nuclear extracts; assay type: biochemical, human; details: HeLa nuclear extracts as source of RNase H
Method: RNase H assays were performed using a chemically synthesized 25-base oligoribonucleotide corresponding to bases +23 to +47 of activated (codon 12, G→U) H-ras mRNA. The 5' end-labeled RNA was used at a concentration of 20 nM and incubated with a 10-fold molar excess of antisense oligonucleotide in a reaction containing 20 mM tris-Cl, pH 7.5, 100 mM KCl, 10 mM MgCl2, 1 mM dithiothreitol, 10 μg tRNA and 4 U RNasin in a final volume of 10 μl. The reaction components were preannealed at 37° C. for 15 Minutes then allowed to cool slowly to room temperature. HeLa cell nuclear extracts were used as a source of mammalian RNase H. Reactions were initiated by addition of 2 μg of nuclear extract (5 μl) and reactions were allowed to proceed for 10 Minutes at 37° C. Reactions were stopped by phenol/chloroform extraction and RNA components were precipitated with ethanol. Equal CPMs were loaded on a 20% polyacrylamide gel containing 7M urea and RNA cleavage products were resolved and visualized by electrophoresis followed by autoradiography. Quantitation of cleavage products was performed using a Molecular Dynamics Densitometer.

Row | Sequence | IC50 [1] [nM] | IC50 [2] [nM] | Tm ([3]; Table 5, 2'-modified 17-mer with 7-deoxy gap, 25-mer oligoribonucleotide complement) [°C] | ΔΔG°37 ([3]; free energy difference between hybridization to mutant target and to wild type target) | inhibition of ras expression [4] | inhibition of ras mRNA [4] [%] | binding to the hairpin target ([5]; listed as full deoxy 17-mer) | degradation [6] | inhibition of T24 cell proliferation relative to HeLa cells (T24 cancer cells; 100 nM oligonucleotide concentration) | inhibition of cell proliferation (T24 cancer cells; T24 cells) [%] | IC50 (T24 cancer cells; T24 cells, dose-response, counted 3 days later, read-out: IC50, cell proliferation) [nM] | inhibition of ras expression [7] | selectivity for inhibition of mutant ras-luciferase relative to wild type ([8]; 100 nM oligonucleotide) | selectivity toward the mutant form of ras-luciferase as compared to the normal form ([8]; at low concentrations) | selectivity, mutant over wild type ([8]; dose-dependent experiment, FIG. 8) [fold] | IC50 ([8]; read-out: IC50, inhibition of ras-luciferase activity, mutant ras-luciferase, dose-response) [nM] | selectivity toward the mutated form of ras-luciferase ([8]; single dose 0.5 μM) | binding to the hairpin target ([5]; listed as full 2'--O--methyl 17-mer) | ability to direct RNase H cleavage [9]
1 | CCACACCGACGGCGCCC [2570] (phosphorothioate, further chemistry not given here) [compound 2570] | ~250 | 150 | 64.2 | +1.8 kcal/mole | inhibited ras expression in T24 cells; also recorded: decreased ras mRNA levels in T24 cells | 82 | formed the least stable duplex | no degradation after 5 hours | four times as severe | 61 | 98 | did not inhibit ras expression in HeLa cells | approximately 4 fold | approximately threefold | 5 | ~100 | displayed selectivity toward the mutated form of ras-luciferase |  | 
2 | CCACACCGACGGCGCCC (chemistry not given here) [compound 4122, phosphorothioate 17-mer, full 2'-O-methyl, 0 deoxy] |  |  |  |  |  |  |  |  |  |  |  |  |  |  |  |  |  | formed the most stable duplex | no cleavage was observed

From US5576208A, “Antisense oligonucleotide inhibition of the RAS gene” (priority 1994, dated 1996)
